ChEMBL document CHEMBL4622943, “Design, synthesis and biological evaluation of 2-methyl-(1,1'-biphenyl)-pyrimidine conjugates” (Bioorg Med Chem Lett, 2020)
Calls of active or inactive are those of the source. The calls are words filed in the database; no cut-off is given here.

How the values were obtained:
SK-OV-3 [1] = test: Induction of apoptosis in human SKOV3 cells assessed as live cells at 5 uM by FITC staining based flow cytometry (reference value: 95.5 to 96 %); format: functional
A549 [2] = test: Inhibition of cell migration in human A549 cells incubated for 48 hrs by wound healing assay; format: functional, cell-based
SK-OV-3 [3] = test: Antiinvasive activity against human SKOV3 cells at 0.6 uM after 24 hrs by crystal violet staining based transwell assay relative to control; format: functional
SK-OV-3 [4] = test: Induction of apoptosis in human SKOV3 cells assessed as necrotic cells at 10 uM by FITC staining based flow cytometry (reference value: 1.74 to 1.93 %); format: functional
HT-29 = test: Inhibition of cell migration in human HT-29 cells incubated for 48 hrs by wound healing assay; format: functional, cell-based
SK-OV-3 [5] = test: Inhibition of cell migration in human SKOV3 cells incubated for 48 hrs by wound healing assay; format: functional, cell-based
SK-OV-3 [6] = test: Induction of apoptosis in human SKOV3 cells assessed as necrotic cells at 5 uM by FITC staining based flow cytometry (reference value: 1.74 to 1.93 %); format: functional
[7] = Selectivity index, ratio of IC50 for human MRC5 cells to IC50 for human HT-29 cells assessed as cell growth inhibition by CCK8 assay; format: toxicity; conditions: MRC5 cells versus HT-29 cells, read-out: Ratio IC50
SK-OV-3 [8] = test: Induction of apoptosis in human SKOV3 cells assessed as late apoptotic cells at 10 uM by FITC staining based flow cytometry (reference value: 2.14 to 2.83 %); format: functional
MRC5 = test: Cytotoxicity against human MRC5 cells assessed as cell growth inhibition by CCK8 assay; format: cell-based
SK-OV-3 [9] = test: Induction of apoptosis in human SKOV3 cells assessed as late apoptotic cells at 5 uM by FITC staining based flow cytometry (reference value: 2.14 to 2.83 %); format: functional
[10] = Selectivity index, ratio of IC50 for human MRC5 cells to IC50 for human HepG2 cells assessed as cell growth inhibition by CCK8 assay; format: toxicity; conditions: MRC5 cells versus HepG2 cells, read-out: Ratio IC50
SK-OV-3 [11] = test: Induction of apoptosis in human SKOV3 cells assessed as early apoptotic cells at 5 uM by FITC staining based flow cytometry (reference value: 0.59 to 0.97 %); format: functional
HepG2 = test: Inhibition of cell migration in human HepG2 cells incubated for 48 hrs by wound healing assay; format: functional, cell-based
[12] = Selectivity index, ratio of IC50 for human MRC5 cells to IC50 for human SKOV3 cells assessed as cell growth inhibition by CCK8 assay; format: toxicity; conditions: MRC5 cells versus SKOV3 cells, read-out: Ratio IC50
SK-OV-3 [13] = test: Induction of apoptosis in human SKOV3 cells assessed as early apoptotic cells at 10 uM by FITC staining based flow cytometry (reference value: 0.59 to 0.97 %); format: functional
[14] = Selectivity index, ratio of IC50 for human MRC5 cells to IC50 for human A549 cells assessed as cell growth inhibition by CCK8 assay; format: toxicity; conditions: MRC5 cells versus A549 cells, read-out: Ratio IC50
SK-OV-3 [15] = test: Induction of apoptosis in human SKOV3 cells assessed as live cells at 10 uM by FITC staining based flow cytometry (reference value: 95.5 to 96 %); format: functional
AGS = test: Antiproliferative activity against human AGS cells assessed as cell growth inhibition by CCK8 assay; format: functional, cell-based
MDA-MB-231 = test: Antiproliferative activity against human MDA-MB-231 cells assessed as cell growth inhibition by CCK8 assay; format: functional, cell-based
NCI-H1299 = test: Antiproliferative activity against human H1299 cells assessed as cell growth inhibition by CCK8 assay; format: functional, cell-based
HCC827 = test: Antiproliferative activity against human HCC827 cells assessed as cell growth inhibition by CCK8 assay; format: functional, cell-based
A-375 = test: Antiproliferative activity against human A375 cells assessed as cell growth inhibition by CCK8 assay; format: functional, cell-based
A549 [16] = test: Induction of apoptosis in human A549 cells assessed as late apoptotic cells at 5 uM by FITC staining based flow cytometry (reference value: 2.12 to 2.33 %); format: functional
SK-OV-3 [17] = test: Inhibition of cell migration in human SKOV3 cells at 0.6 uM incubated for 48 hrs by wound healing assay relative to control; format: functional; conditions: SK-OV-3, 48 h
A549 [18] = test: Induction of apoptosis in human A549 cells assessed as necrotic cells at 10 uM by FITC staining based flow cytometry (reference value: 0.78 to 1.49 %); format: functional
A549 [19] = test: Induction of apoptosis in human A549 cells assessed as early apoptotic cells at 10 uM by FITC staining based flow cytometry (reference value: 0.34 to 0.39 %); format: functional
A549 [20] = test: Induction of apoptosis in human A549 cells assessed as early apoptotic cells at 5 uM by FITC staining based flow cytometry (reference value: 0.34 to 0.39 %); format: functional
A549 [21] = test: Inhibition of cell migration in human A549 cells at 0.6 uM incubated for 48 hrs by wound healing assay relative to control; format: functional; conditions: A549, 48 h
A549 [22] = test: Induction of apoptosis in human A549 cells assessed as late apoptotic cells at 10 uM by FITC staining based flow cytometry (reference value: 2.12 to 2.33 %); format: functional
A549 [23] = test: Induction of apoptosis in human A549 cells assessed as live cells at 10 uM by FITC staining based flow cytometry (reference value: 96 to 96.6 %); format: functional
[24] = target: Programmed cell death protein 1/Programmed cell death 1 ligand 1 (Homo sapiens, UniProt Q15116+Q9NZQ7); test: Inhibition of PD1 (unknown origin)/PDL1 (unknown origin) protein-protein interaction by HTRF assay; format: protein-complex assay
A549 [25] = test: Antiinvasive activity against human A549 cells at 0.6 uM after 24 hrs by crystal violet staining based transwell assay relative to control; format: functional
A549 [26] = test: Induction of apoptosis in human A549 cells assessed as live cells at 5 uM by FITC staining based flow cytometry (reference value: 96 to 96.6 %); format: functional
A549 [27] = test: Induction of apoptosis in human A549 cells assessed as necrotic cells at 5 uM by FITC staining based flow cytometry (reference value: 0.78 to 1.49 %); format: functional

Programmed cell death protein 1/Programmed cell death 1 ligand 1, sequence (Q15116 whole entry): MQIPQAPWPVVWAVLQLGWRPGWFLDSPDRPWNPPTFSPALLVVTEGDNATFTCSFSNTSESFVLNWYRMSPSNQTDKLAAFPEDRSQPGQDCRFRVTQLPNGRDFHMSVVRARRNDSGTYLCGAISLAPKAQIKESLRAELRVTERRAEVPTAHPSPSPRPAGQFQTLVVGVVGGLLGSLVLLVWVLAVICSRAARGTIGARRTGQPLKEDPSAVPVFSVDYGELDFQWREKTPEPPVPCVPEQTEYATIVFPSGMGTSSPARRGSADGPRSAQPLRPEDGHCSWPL
Programmed cell death protein 1/Programmed cell death 1 ligand 1, sequence (Q9NZQ7 whole entry): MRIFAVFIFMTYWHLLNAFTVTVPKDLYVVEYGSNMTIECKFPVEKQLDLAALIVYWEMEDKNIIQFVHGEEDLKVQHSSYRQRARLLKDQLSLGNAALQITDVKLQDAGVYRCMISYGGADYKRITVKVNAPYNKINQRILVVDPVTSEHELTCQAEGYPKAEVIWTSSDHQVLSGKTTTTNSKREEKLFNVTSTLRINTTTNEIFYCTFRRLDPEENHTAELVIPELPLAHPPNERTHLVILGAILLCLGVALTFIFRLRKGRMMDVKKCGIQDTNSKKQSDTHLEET

Row | SMILES | Activity (SK-OV-3 [1]) [%] | inhibition (A549 [2]) | Activity (SK-OV-3 [3]) [%] | Activity (SK-OV-3 [4]) [%] | inhibition (HT-29) | inhibition (SK-OV-3 [5]) | Activity (SK-OV-3 [6]) [%] | selectivity ratio [7] | Activity (SK-OV-3 [8]) [%] | IC50 (MRC5) [µM] | Activity (SK-OV-3 [9]) [%] | selectivity ratio [10] | inhibition (HepG2) | selectivity ratio [12] | selectivity ratio [14] | IC50 (AGS) [µM] | IC50 (MDA-MB-231) [µM] | IC50 (NCI-H1299) [µM] | IC50 (HCC827) [µM] | IC50 (A-375) [µM] | also measured
1 | Cc1c(CNc2nc(NCCCN3CCCCC3)cc(N3CCOCC3)n2)cccc1-c1ccccc1 | 95 | Active | 60 | 2.18 | Active | Active | 1.87 | 267 | 4.98 | 879 | 2.31 | 295 | Active | 267 | 185 |  |  |  |  |  | Activity (SK-OV-3 [11]): 0.85%; Activity (SK-OV-3 [13]): 1.49%; Activity (SK-OV-3 [15]): 91.3%
2 | Cc1c(CNc2nc(NCCCN3CCCC3)cc(N3CCOCC3)n2)cccc1-c1ccccc1 |  | Active |  |  | Active | Active |  | 139 |  | 1050 |  | 198 | Active | 139 | 103 | 4.52 | 6.75 | 8.1 | 7.28 | 7 | 
3 | CCN(CC)CCCNc1cc(N2CCNCC2)nc(NCc2cccc(-c3ccccc3)c2C)n1 | 87.8 | Active | 66.68 | 25.7 | Active | Active | 3.16 | 278 | 8.26 | 579 | 4.08 | 82 | Active | 278 | 147 | 3.11 | 4.88 | 6.74 | 5.27 | 4.03 | Activity (A549 [16]): 6.33%; inhibition at 0.6 µM (SK-OV-3 [17]): 68.6%; Activity (A549 [18]): 8.19%; Activity (A549 [19]): 17.7%; Activity (A549 [20]): 4.3%; inhibition at 0.6 µM (A549 [21]): 42.4%; Activity (SK-OV-3 [11]): 5%; Activity (A549 [22]): 14.6%; Activity (A549 [23]): 59.6%; IC50 [24]: 5.15 µM; Activity (A549 [25]): 70.23%; Activity (A549 [26]): 87.1%; Activity (SK-OV-3 [13]): 11.5%; Activity (A549 [27]): 2.24%; Activity (SK-OV-3 [15]): 54.5%
4 | Cc1c(CNc2nc(NCCCN(C)C)cc(N3CCOCC3)n2)cccc1-c1ccccc1 |  | Active |  |  | Active | Active |  | 129 |  | 1050 |  | 213 | Active | 129 | 112 |  |  |  |  |  | Activity (A549 [16]): 3.99%; inhibition at 0.6 µM (SK-OV-3 [17]): 39.6%; Activity (A549 [18]): 3.76%; Activity (A549 [19]): 4.42%; Activity (A549 [20]): 1.28%; inhibition at 0.6 µM (A549 [21]): 53.4%; Activity (A549 [22]): 18.2%; Activity (A549 [23]): 81.7%; Activity (A549 [25]): 21.81%; Activity (A549 [26]): 92.7%; Activity (A549 [27]): 2.05%
5 | Cc1c(CNc2nc(NCCCN3CCOCC3)cc(N3CCOCC3)n2)cccc1-c1ccccc1 |  |  |  |  |  |  |  |  |  |  |  |  |  |  |  | 4.52 | 6.75 | 8.1 | 7.28 | 7 | 
6 | CCN(CC)CCCNc1cc(N2CCOCC2)nc(NCc2cccc(-c3ccccc3)c2C)n1 |  | Active |  |  | Active | Active |  | 119 |  | 924 |  | 165 | Active | 119 | 114 |  |  |  |  |  | 
